# Experimental data taken from patent US20230183219A1, “CONDENSED SUBSTITUTED HYDROPYRROLES AS ANTAGONISTS OF THE MUSCARINIC ACETYLCHOLINE RECEPTOR M4” (Vanderbilt University, priority 2020, published 2023).
# Molecular target: T1, Human M4 (Homo sapiens, UniProt P08173)
# T1 construct: Human or rat M4 cDNA, along with the chimeric G protein Gqi5, were transfected into Chinese hamster ovary (CHO-K1) cells; expressed in transfected cells; host or cells: CHO-K1 (Chinese hamster ovary, ATCC), stably co-expressing Gqi5
# T1 sequence (P08173 1-479): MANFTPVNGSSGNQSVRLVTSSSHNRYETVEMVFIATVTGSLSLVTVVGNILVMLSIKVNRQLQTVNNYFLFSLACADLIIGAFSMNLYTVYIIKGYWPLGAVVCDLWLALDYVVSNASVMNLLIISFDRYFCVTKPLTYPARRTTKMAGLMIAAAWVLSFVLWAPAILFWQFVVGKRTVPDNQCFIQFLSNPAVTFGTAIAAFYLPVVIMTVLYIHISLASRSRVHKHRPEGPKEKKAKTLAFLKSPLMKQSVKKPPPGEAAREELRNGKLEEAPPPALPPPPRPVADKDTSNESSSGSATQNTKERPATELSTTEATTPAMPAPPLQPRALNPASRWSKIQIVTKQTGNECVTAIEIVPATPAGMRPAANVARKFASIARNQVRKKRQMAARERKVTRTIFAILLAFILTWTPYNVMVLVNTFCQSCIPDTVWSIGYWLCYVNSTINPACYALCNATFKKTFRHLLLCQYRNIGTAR
# Test: mAChR M4 cell-based functional assay (calcium flux, decrease of EC80 acetylcholine response)
# Conditions: for remaining activity at 30 µM: % ACh maximum at 30 μM, read-out: Human M4 Emin; for IC50: M4/Gqi5/CHO-K1 cells, decrease of response to EC80 acetylcholine
# Method: Human or rat M4 cDNA, along with the chimeric G protein Gqi5, were transfected into Chinese hamster ovary (CHO-K1) cells purchased from the American Type Culture Collection using Lipofectamine2000. M4/Gqi5/CHO cells were grown in Ham's F-12 medium containing 10% heat-inactivated fetal bovine serum (FBS), 20 mM HEPES, 500 μg/mL G418 sulfate, and 200 μg/mL Hygromycin B.
# For high throughput measurement of agonist-evoked increases in intracellular calcium, CHO-K1 cells stably expressing muscarinic receptors were plated in growth medium lacking G418 and hygromycin at 15,000 cells/20 μL/well in Greiner 384-well black-walled, tissue culture (TC)-treated, clear-bottom plates (VWR). Cells were incubated overnight at 37° C. and 5% CO2. The next day, cells were washed using an ELX 405 (BioTek) with assay buffer; the final volume was then aspirated to 20 μL. Next, 20 μL of a 2.3 μM stock of Fluo-4/acetoxymethyl ester (Invitrogen, Carlsbad, Calif.), prepared as a 2.3 mM stock in DMSO and mixed in a 1:1 ratio with 10% (w/v) Pluronic F-127 and diluted in assay buffer, was added to the wells and the cell plates were incubated for 50 min at 37° C. and 5% CO2. Dye was removed by washing with the ELX 405 and the final volume was aspirated to 20 μL. Compound master plates were formatted in a 10 point concentration-response curve (CRC) format (1:3 dilutions) in 100% DMSO with a starting concentration of 10 or 1 mM using a BRAVO liquid handler (Agilent). Test compound CRCs were then transferred to daughter plates (240 nL) using the Echo acoustic plate reformatter (Labcyte, Sunnyvale, Calif.) and then diluted into assay buffer (40 μL) to a 2×stock using a Thermo Fisher Combi (Thermo Fisher Scientific, Waltham, Mass.).
# Calcium flux was measured using the Functional Drug Screening System (FDSS) 6000 or 7000 (Hamamatsu Corporation, Tokyo, Japan) as an increase in the fluorescent static ratio. Compounds were applied to cells (20 μL, 2×) using the automated system of the FDSS at 2 seconds into the protocol and the data were collected at 1 Hz. At 143 s, 10 μL of an EC20 concentration of the muscarinic receptor agonist acetylcholine was added (5×), followed by the addition of 12 μL of an EC80 concentration of acetylcholine at the 268 s time point (5×). Agonist activity was analyzed as a concentration-dependent increase in calcium mobilization upon compound addition. Positive allosteric modulator activity was analyzed as a concentration-dependent increase in the EC20 acetylcholine response. Antagonist activity was analyzed as a concentration-dependent decrease in the EC80 acetylcholine response; for the purposes of the tables herein, an IC50 (inhibitory concentration 50) was calculated as a concentration-dependent decrease of the response elicited by an EC80 concentration of acetylcholine. Concentration-response curves were generated using a four-parameter logistical equation in XLFit curve fitting software (IDBS, Bridgewater, N.J.) for Excel (Microsoft, Redmond, Wash.) or Prism (GraphPad Software, Inc., San Diego, Calif.) or the Dotmatics software platform (Dotmatics, Bishop's Stortford, UK).
# Compounds were synthesized as described above. Activity (IC50 and Emin) was determined in the mAChR M4 cell-based functional assay as described above and the data are shown in Table 2.
remaining activity at 30 µM [%],IC50 [nM],SMILES
2,21.2,"FC1(F)CCCN(c2cc(C(F)(F)F)c(N[C@H]3C[C@@H]4CN(CC5CCOCC5)C[C@@H]4C3)nn2)C1 [Example 138, (3aR,5s,6aS)-N-(6-(3,3-difluoro-piperidin-1-yl)-4-(trifluoro-methyl)pyridazin-3-yl)-2-((tetrahydro-2H-pyran-4-yl)methyl)octahydro-cyclopenta[c]pyrrol-5-amine]"
2,2.3,"[2H]C([2H])(C1CCOCC1)N1C[C@H]2C[C@H](Nc3cc(C(F)(F)F)c(-c4cc(F)ccc4Cl)nn3)C[C@H]2C1 [Example 129, (3aR,5s,6aS)-N-(6-(2-chloro-5-fluorophenyl)-5-(trifluoro-methyl)pyridazin-3-yl)-2-((tetrahydro-2H-pyran-4-yl)methyl-d2)octahydrocyclopenta[c]pyrrol-5-amine]"
3,25.1,"Cn1cc2cc(-c3cc(C(F)(F)F)c(N[C@H]4C[C@@H]5CN(CC6COCCO6)C[C@@H]5C4)nn3)ccc2n1 (stereo partly drawn) [Example 20, (3aR,5s,6aS)-2-((1,4-dioxan-2-yl)methyl)-N-(6-(2-methyl-2H-indazol-5-yl)-4-(trifluoromethyl)pyridazin-3-yl)octahydro-cyclopenta[c]pyrrol-5-amine]"
3,2040,"CC(C)c1ccc(F)c(-c2cc(C(F)(F)F)c(N[C@H]3C[C@@H]4CN(CC5CCOCC5)C[C@@H]4C3)nn2)c1 [Example 96, (3aR,5s,6aS)-N-(6-(2-fluoro-5-isopropylphenyl)-4-(trifluoromethyl)pyridazin-3-yl)-2-((tetrahydro-2H-pyran-4-yl)methyl)octahydro-cyclopenta[c]pyrrol-5-amine]"
3,242,"Fc1ccc(F)c(-c2cc(C(F)(F)F)c(N[C@H]3C[C@@H]4CN(C[C@@H]5COCCO5)C[C@@H]4C3)nn2)c1 [Example 69, (3aR,5s,6aS)-2-(((R)-1,4-dioxan-2-yl)methyl)-N-(6-(2,5-difluorophenyl)-4-(trifluoromethyl)pyridazin-3-yl)octahydro-cyclopenta[c]pyrrol-5-amine]"
3,47.6,"FC(F)(F)c1cc(-c2ccc3c(c2)CCO3)nnc1N[C@H]1C[C@@H]2CN(CC3CCOCC3)C[C@@H]2C1 [Example 88, (3aR,5s,6aS)-N-(6-(2,3-dihydrobenzofuran-5-yl)-4-(trifluoromethyl)pyridazin-3-yl)-2-((tetrahydro-2H-pyran-4-yl)methyl)octahydro-cyclopenta[c]pyrrol-5-amine]"
3,95.7,"Cc1ccc(F)cc1-c1cc(C(F)(F)F)c(N[C@H]2C[C@@H]3CN(Cc4ccccn4)C[C@@H]3C2)nn1 [Example 103, (3aR,5s,6aS)-N-(6-(5-fluoro-2-methylphenyl)-4-(trifluoromethyl)pyridazin-3-yl)-2-(pyridin-2-ylmethyl)octahydro-cyclopenta[c]pyrrol-5-amine]"
3,31.2,"Cc1ccc(F)cc1-c1cc(C(F)(F)F)c(N[C@H]2C[C@@H]3CN(C[C@@H]4COCCO4)C[C@@H]3C2)nn1 [Example 21, (3aR,5s,6aS)-2-(((R)-1,4-dioxan-2-yl)methyl)-N-(6-(5-fluoro-2-methylphenyl)-4-(trifluoromethyl)pyridazin-3-yl)octahydro-cyclopenta[c]pyrrol-5-amine]"
3,38,"COc1ccc(-c2cc(C(F)(F)F)c(N[C@H]3C[C@@H]4CN(CC5CCOCC5)C[C@@H]4C3)nn2)c(C)c1 [Example 77, (3aR,5s,6aS)-N-(6-(4-methoxy-2-methylphenyl)-4-(trifluoromethyl)pyridazin-3-yl)-2-((tetrahydro-2H-pyran-4-yl)methyl)octahydro-cyclopenta[c]pyrrol-5-amine]"
4,232,"N#Cc1cccc(-c2cc(C(F)(F)F)c(N[C@H]3C[C@@H]4CN(CC5CCOCC5)C[C@@H]4C3)nn2)c1F [Example 60, 2-fluoro-3-(6-(((3aR,5s,6aS)-2-((tetrahydro-2H-pyran-4-yl)methyl)octahydro-cyclopenta[c]pyrrol-5-yl)amino)-5-(trifluoro-methyl)pyridazin-3-yl)benzonitrile]"
6,2830,"[2H][C@@]1(Oc2nnc(-c3cc(F)ccc3C)cc2C(F)(F)F)C[C@H]2CN(Cc3ccccn3)C[C@H]2C1 [Example 134, (3aR,5s,6aS)-5-((6-(5-fluoro-2-methylphenyl)-4-(trifluoro-methyl)pyridazin-3-yl)oxy)-2-(pyridin-2-ylmethyl)octahydro-cyclopenta[c]pyrrole-5-d]"
3,237,"Fc1cc(F)c(-c2cc(C(F)(F)F)c(N[C@H]3C[C@@H]4CN(CC5CCOCC5)C[C@@H]4C3)nn2)cc1F [Example 42, (3aR,5s,6aS)-2-((tetrahydro-2H-pyran-4-yl)methyl)-N-(4-(trifluoromethyl)-6-(2,4,5-trifluorophenyl)pyridazin-3-yl)octahydro-cyclopenta[c]pyrrol-5-amine]"
3,64.7,"[2H][C@@]1(Nc2nnc(-c3cccc(F)c3)cc2C(F)(F)F)C[C@H]2CN(CC3CCOCC3)C[C@H]2C1 [Example 127, (3aR,5s,6aS)-N-(6-(3-fluoro-phenyl)-4-(trifluoromethyl)pyridazin-3-yl)-2-((tetrahydro-2H-pyran-4-yl)methyl)octahydro-cyclopenta[c]pyrrol-5-d-5-amine]"
3,94.2,"[2H]C([2H])(C1CCOCC1)N1C[C@H]2C[C@H](Nc3nnc(-c4ccc(C)cc4C)cc3C(F)(F)F)C[C@H]2C1 [Example 126, (3aR,5s,6aS)-N-(6-(2,4-dimethyl-phenyl)-4-(trifluoro-methyl)pyridazin-3-yl)-2-((tetrahydro-2H-pyran-4-yl)methyl-d2)octahydro-cyclopenta[c]pyrrol-5-amine]"
4,384,"Cc1c(F)cc(F)cc1-c1cc(C(F)(F)F)c(N[C@H]2C[C@@H]3CN(CC4CCOCC4)C[C@@H]3C2)nn1 [Example 46, (3aR,5s,6aS)-N-(6-(3,5-difluoro-2-methylphenyl)-4-(trifluoromethyl)pyridazin-3-yl)-2-((tetrahydro-2H-pyran-4-yl)methyl)octahydro-cyclopenta[c]pyrrol-5-amine]"
2,9.2,"F[C@@H]1CCN(c2cc(C(F)(F)F)c(N[C@H]3C[C@@H]4CN(CC5CCOCC5)C[C@@H]4C3)nn2)C1 [Example 140, (3aR,5s,6aS)-N-(6-((R)-3-fluoropyrrolidin-1-yl)-4-(trifluoromethyl)pyridazin-3-yl)-2-((tetrahydro-2H-pyran-4-yl)methyl)octahydro-cyclopenta[c]pyrrol-5-amine]"
